The values below are quoted from earlier work in patent publication US20250041478A1, “FIBROUS POLYPEPTIDE-BASED BIOSCAFFOLD DELIVERY OF THERAPEUTICS TO NEURAL CELLS” (priority 2023, published 2025).

Each structure is given as a SMILES string. Where a name gives a salt, the structure may show the parent alone.

For this data set the following is noted: in vivo.

In the case of `CN(C)c1ccc(O)c2c1C[C@H]1C[C@H]3[C@H](N(C)C)C(O)=C(C(N)=O)C(=O)[C@@]3(O)C(O)=C1C2=O` [MH, minocycline hydrochloride], the plasma half-life was 11 to 23 h.
